From ChEMBL document CHEMBL5360592, “Ursane-Type Triterpenes with a Phenylpropanoid Unit from Camellia ptilosperma and Evaluation of Their Cytotoxic Activities” (J Nat Prod, 2023)

Columns and labels:
Format in all cases: functional, cell-based
HeLa = test: Cytotoxicity against human HeLa cells assessed as inhibition of cell growth incubated for 24 hrs by MTT assay
NCI-H460 = test: Cytotoxicity against human NCI-H460 cells assessed as inhibition of cell growth incubated for 24 hrs by MTT assay; conditions: NCI-H460, 24 h
MDA-MB-231 = test: Cytotoxicity against human MDA-MB-231 cells assessed as inhibition of cell growth incubated for 24 hrs by MTT assay; conditions: MDA-MB-231, 24 h
A549 = test: Cytotoxicity against human A549 cells assessed as inhibition of cell growth incubated for 24 hrs by MTT assay; conditions: A549, 24 h
HCT-116 = test: Cytotoxicity against human HCT-116 cells assessed as inhibition of cell growth incubated for 24 hrs by MTT assay; conditions: HCT-116, 24 h
HT-29 = test: Cytotoxicity against human HT-29 cells assessed as inhibition of cell growth incubated for 24 hrs by MTT assay; conditions: HT-29, 24 h
[1] = Cytotoxicity against mouse LL2 cells assessed as inhibition of cell growth incubated for 24 hrs by MTT assay; conditions: Lewis lung carcinoma
CT26 = test: Cytotoxicity against mouse CT26 cells assessed as inhibition of cell growth incubated for 24 hrs by MTT assay; conditions: CT26, 24 h
[2] = Cytotoxicity against mouse Hepa1-6 cells assessed as inhibition of cell growth incubated for 24 hrs by MTT assay; conditions: Hepa1-6, 24 h

Work on COC(=O)[C@@]1(C)[C@@H]2CC[C@]3(C)[C@H]([C@@H]4O[C@@H](c5ccc(O)c(OC)c5)[C@@H](C)OC4=C4[C@@H]5[C@@H](C)[C@H](C)CC[C@]5(C)CC[C@]43C)[C@@]2(C)CC[C@@H]1O yielded an IC50 (HeLa) of 8.1 µM, an IC50 (NCI-H460) of over 10 µM and an IC50 (MDA-MB-231) of over 10 µM. For the same compound, the IC50 (A549) was over 10 µM, the IC50 (HCT-116) was over 10 µM and the IC50 (HT-29) was 8.5 µM. The IC50 [1] was over 10 µM, the IC50 (CT26) was over 10 µM and the IC50 [2] was 4.1 µM.

COC(=O)[C@@]1(C)[C@@H]2CC[C@]3(C)[C@H]([C@@H]4O[C@H](c5ccc(O)c(OC)c5)[C@@H](C)OC4=C4[C@@H]5[C@@H](C)[C@H](C)CC[C@]5(C)CC[C@]43C)[C@@]2(C)CC[C@@H]1O gave an IC50 (HeLa) of over 10 µM, an IC50 (NCI-H460) of over 10 µM and an IC50 (MDA-MB-231) of 4.9 µM. It also gave an IC50 (A549) of over 10 µM, an IC50 (HCT-116) of 8.2 µM and an IC50 (HT-29) of over 10 µM. It also gave an IC50 [1] of over 10 µM, an IC50 (CT26) of 9.1 µM and an IC50 [2] of over 10 µM.

COC(=O)[C@@]1(C)[C@@H]2CC[C@]3(C)[C@H]([C@@H]4O[C@H](C)[C@@H](c5ccc(O)c(OC)c5)OC4=C4[C@@H]5[C@@H](C)[C@H](C)CC[C@]5(C)CC[C@]43C)[C@@]2(C)CC[C@@H]1O showed an IC50 (HeLa) of over 10 µM, an IC50 (NCI-H460) of over 10 µM and an IC50 (MDA-MB-231) of 9.3 µM. It also gave an IC50 (A549) of over 10 µM, an IC50 (HCT-116) of 7.5 µM and an IC50 (HT-29) of over 10 µM. For the same compound, the IC50 [1] was over 10 µM, the IC50 (CT26) was over 10 µM and the IC50 [2] was over 10 µM.

COC(=O)[C@]1(C)[C@@H]2CC[C@]3(C)[C@H]([C@@H]4O[C@H](CO)[C@@H](c5ccc(O)c(OC)c5)OC4=C4[C@@H]5[C@@H](C)[C@H](C)CC[C@]5(C)CC[C@]43C)[C@@]2(C)CC[C@@H]1O gave an IC50 (HeLa) of over 10 µM, an IC50 (NCI-H460) of over 10 µM and an IC50 (MDA-MB-231) of over 10 µM. The IC50 (A549) was over 10 µM, the IC50 (HCT-116) was over 10 µM and the IC50 (HT-29) was over 10 µM. For the same compound, the IC50 [1] was over 10 µM, the IC50 (CT26) was 8.2 µM and the IC50 [2] was over 10 µM.

For COc1cc([C@H]2O[C@@H]3C(=C4[C@@H]5[C@@H](C)[C@H](C)CC[C@]5(C)CC[C@@]4(C)[C@]4(C)CC[C@H]5C(C)(C)[C@@H](O)CC[C@]5(C)[C@@H]34)O[C@@H]2CO)ccc1O, the IC50 (HeLa) was 5.2 µM, the IC50 (NCI-H460) was over 10 µM and the IC50 (MDA-MB-231) was 2.2 µM. For the same compound, the IC50 (A549) was over 10 µM, the IC50 (HCT-116) was 5.7 µM and the IC50 (HT-29) was 6.8 µM. It also gave an IC50 [1] of over 10 µM, an IC50 (CT26) of 7.5 µM and an IC50 [2] of 4.7 µM.

For COc1cc([C@H]2OC3=C4[C@@H]5[C@@H](C)[C@H](C)CC[C@]5(C)CC[C@@]4(C)[C@]4(C)CC[C@H]5C(C)(C)[C@@H](O)CC[C@]5(C)[C@H]4[C@@H]3O[C@@H]2CO)ccc1O, the IC50 (HeLa) was 0.7 µM, the IC50 (NCI-H460) was over 10 µM and the IC50 (MDA-MB-231) was 2.7 µM. For the same compound, the IC50 (A549) was over 10 µM, the IC50 (HCT-116) was 1.4 µM and the IC50 (HT-29) was 5.1 µM. For the same compound, the IC50 [1] was over 10 µM, the IC50 (CT26) was over 10 µM and the IC50 [2] was 2.7 µM.
